Measured values published in PMC4561908, “Direct Pore Binding as a Mechanism for Isoflurane Inhibition of the Pentameric Ligand-gated Ion Channel ELIC” (Scientific Reports, 2015).
Like-named read-outs stand apart in the source and are kept apart here.

Experiments:
[1] = molecular target: T1, ELIC A244T mutant (Dickeya chrysanthemi, UniProt P0C7B7, A243T); assay: Two-electrode voltage clamp of A244T (13′) ELIC mutant in Xenopus laevis oocytes; type: cell-based, Erwinia chrysanthemi
T1 construct: DNA encoding ELIC and a T7 promoter was inserted into the pCMV-mGFP Cterm S11 NeoKan (Theranostech) vector; expressed in transfected cells; host or cells: Xenopus laevis oocytes (cRNA injection)
T1 sequence (P0C7B7 whole entry A243T): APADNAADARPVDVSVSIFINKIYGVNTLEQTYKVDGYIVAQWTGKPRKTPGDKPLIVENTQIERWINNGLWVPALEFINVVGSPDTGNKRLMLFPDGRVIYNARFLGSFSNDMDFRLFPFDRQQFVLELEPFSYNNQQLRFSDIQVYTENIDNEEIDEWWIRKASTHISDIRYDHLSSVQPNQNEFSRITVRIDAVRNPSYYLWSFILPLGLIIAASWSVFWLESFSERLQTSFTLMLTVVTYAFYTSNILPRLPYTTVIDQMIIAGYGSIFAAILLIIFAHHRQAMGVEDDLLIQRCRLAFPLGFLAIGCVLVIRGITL
Source text: (§1) To establish the functional relevance of the identified isoflurane-binding sites, we made site-directed mutations, one at a time, at positions 6′ (T237A) and 13′ (A244T). Subsequently, we expressed these mutants in Xenopus laevis oocytes and measured their functional responses to isoflurane (Fig. 3). […] However, these mutant channels, especially T237A, are much less sensitive to isoflurane inhibition than the WT ELIC. […] The functional consequences of these mutations are associated with changes in the hydrophobicity profile and pore radii near positions 6′ and 13′ (Supplementary Fig. 2). It should be noted that the side chains of the hydrophobic residue at the 9′ position are involved in both of the isoflurane-binding sites (Fig. 2c). The fact that the isoflurane inhibition curve shifts an order of magnitude to the right in the T237A mutant indicates the importance of amphipathic interactions at position 6′ for isoflurane inhibition.
Figure 3 Functional evidence of isoflurane binding to the pore. (a) Representative current traces for isoflurane inhibition of WT and two mutants: T237(6′)A; and A244(13′)T. The scale bars are 0.1 μA (vertical) and 30s (horizontal). (b) Agonist propylamine (PPA) concentration-response curves for WT and two mutants indicated in (a). The data were normalized to the maximum current and fit to the Hill equation (solid lines, n ≥ 5). (c) Isoflurane inhibition of WT and the two mutants indicated in (a). The data were normalized to the current at EC20 in the absence of isoflurane and fit to the Hill equation (solid lines, n ≥ 6). The data are reported as the mean ± SEM and error bars less than the symbol size are not visible.
Site-directed mutagenesis of ELIC was introduced with the QuickChange Lightning Kit (Agilent). DNA encoding ELIC and a T7 promoter was inserted into the pCMV-mGFP Cterm S11 NeoKan (Theranostech) vector. […]

[2] = tested on: α7 nAChR; set-up: method as in ref 12 (a number printed in a supplementary file, which may have a reference list of its own: not looked up in the article's list); settings: read-out: IC50 for nAChRs: α7 (chicken); cited from earlier work
[3] = tested on: α4β4 nAChR; set-up: method as in ref 11 (a number printed in a supplementary file, which may have a reference list of its own: not looked up in the article's list); settings: read-out: IC50 for nAChRs: α4β4 (chicken); cited from earlier work
[4] = tested on: α4β2 nAChR; settings: read-out: IC50 for nAChRs: α4β2 (rat); cited from earlier work
[5] = molecular target: T2, ELIC (Dickeya chrysanthemi, UniProt P0C7B7); assay: Two-electrode voltage clamp inhibition of wild-type ELIC expressed in Xenopus laevis oocytes; type: cell-based, Erwinia chrysanthemi
T2 construct: DNA encoding ELIC and a T7 promoter was inserted into the pCMV-mGFP Cterm S11 NeoKan (Theranostech) vector; expressed in transfected cells; host or cells: Xenopus laevis oocytes (cRNA injection)
T2 sequence (P0C7B7 whole entry): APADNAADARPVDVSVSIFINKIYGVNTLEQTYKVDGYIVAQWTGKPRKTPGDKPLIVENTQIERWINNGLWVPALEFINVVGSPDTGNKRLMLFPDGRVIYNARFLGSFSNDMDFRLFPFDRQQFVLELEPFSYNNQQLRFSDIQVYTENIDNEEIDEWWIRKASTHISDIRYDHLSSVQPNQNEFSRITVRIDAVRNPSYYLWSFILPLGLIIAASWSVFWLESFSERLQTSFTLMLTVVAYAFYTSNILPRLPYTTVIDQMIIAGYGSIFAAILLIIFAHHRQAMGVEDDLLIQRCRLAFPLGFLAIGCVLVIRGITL
Source text: The scale bars are 0.2 μA (vertical) and 30s (horizontal). The data were normalized to the current at EC20 in the absence of anesthetics and fit to the Hill equation (solid lines, n ≥ 6) for the volatile (b) and intravenous (c) general anesthetics. […] The data are reported as the mean ± SEM and error bars less than the symbol size are not visible.
Site-directed mutagenesis of ELIC was introduced with the QuickChange Lightning Kit (Agilent). DNA encoding ELIC and a T7 promoter was inserted into the pCMV-mGFP Cterm S11 NeoKan (Theranostech) vector. Capped complementary RNA was transcribed with the mMessage mMachine T7 kit (Ambion), purified with the RNeasy kit (Qiagen), injected (10–25 ng) into Xenopus laevis oocytes (stages 5–6), which were maintained at 18 °C in a modified Barth’s solution[40]. […] Oocytes were clamped to a holding potential of −40 to −60 mV. The recording solutions contained 130 mM NaCl, 0.1 mM CaCl2, 10 mM HEPES, pH 7.0 as well as desired concentrations of agonist and anesthetics. Data were collected and processed using Clampex 10 (Molecular Devices). Non-linear regressions were performed using Prism software (Graphpad).
For measuring anesthetic inhibitory effects, saturated solutions of the volatile anesthetics isoflurane, sevoflurane, and halothane were prepared in the recording solution by stirring overnight at 4 °C. Concentrations of these anesthetics in the recording chamber were calibrated using ^19F NMR[63]. The intravenous anesthetics, propofol, etomidate, and thiopental, were dissolved directly into the recording solution.

[6] = tested on: α4β2 nAChR; settings: read-out: IC50 for nAChRs: α4β2 (human); cited from earlier work
[7] = tested on: α2β4 nAChR; settings: cited from earlier work
[8] = molecular target: T3, ELIC T237A mutant (Dickeya chrysanthemi, UniProt P0C7B7, T236A); assay: Two-electrode voltage clamp of T237A (6′) ELIC mutant in Xenopus laevis oocytes; type: cell-based, Erwinia chrysanthemi
T3 construct: DNA encoding ELIC and a T7 promoter was inserted into the pCMV-mGFP Cterm S11 NeoKan (Theranostech) vector; expressed in transfected cells; host or cells: Xenopus laevis oocytes (cRNA injection)
T3 sequence (P0C7B7 1-321 T236A): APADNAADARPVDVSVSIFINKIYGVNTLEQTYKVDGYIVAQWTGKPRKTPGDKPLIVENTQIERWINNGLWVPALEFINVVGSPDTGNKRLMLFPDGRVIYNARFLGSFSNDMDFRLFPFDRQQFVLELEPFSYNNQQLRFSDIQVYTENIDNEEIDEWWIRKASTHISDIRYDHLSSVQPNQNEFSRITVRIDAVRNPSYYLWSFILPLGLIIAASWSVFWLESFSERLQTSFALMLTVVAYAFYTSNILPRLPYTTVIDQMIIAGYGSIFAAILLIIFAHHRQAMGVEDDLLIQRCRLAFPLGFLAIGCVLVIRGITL
Source text: as §1
Figure 3 Functional evidence of isoflurane binding to the pore. (a) Representative current traces for isoflurane inhibition of WT and two mutants: T237(6′)A; and A244(13′)T. The scale bars are 0.1 μA (vertical) and 30s (horizontal). (b) Agonist propylamine (PPA) concentration-response curves for WT and two mutants indicated in (a). The data were normalized to the maximum current and fit to the Hill equation (solid lines, n ≥ 5). […]

[9] = molecular target: T2, ELIC; assay: Isoflurane pre-incubation: onset of agonist-induced ELIC current; type: cell-based, Erwinia chrysanthemi; settings: mean ± SEM, n = 15
Protocol: Since isoflurane binds to the pore of the resting state of ELIC (Fig. 2a), pre-incubating the oocytes expressing ELIC with isoflurane for a short period of time is expected to enhance the inhibitory effect.
Figure 4 Isoflurane binding stabilized the closed channel. (a) A representative trace showing that pre-incubation with isoflurane (red arrows) slowed the onset rate and increased the maximum inhibition. The vertical and horizontal scale bars represent 20 μA and 30 seconds, representatively. (b) The onset rate of the channel current can be fitted to a single exponential decay function, I = Imax (1−e^(−t/τ)). The fitting results for the onset rate τ and Imax for channels pre-incubated with isoflurane (red line) are 1.73 ± 0.04 s and −0.33 ± 0.02 μA, respectively; and 1.25 ± 0.05 s and −0.41 ± 0.03 μA, respectively, for channels without isoflurane pre-incubation (green line). The fitting parameters are expressed as mean ± SEM (n = 15).
Site-directed mutagenesis of ELIC was introduced with the QuickChange Lightning Kit (Agilent). DNA encoding ELIC and a T7 promoter was inserted into the pCMV-mGFP Cterm S11 NeoKan (Theranostech) vector. Capped complementary RNA was transcribed with the mMessage mMachine T7 kit (Ambion), purified with the RNeasy kit (Qiagen), injected (10–25 ng) into Xenopus laevis oocytes (stages 5–6), which were maintained at 18 °C in a modified Barth’s solution[40]. All procedures involving Xenopus laevis oocytes were approved by the University of Pittsburgh Institutional Animal Care and Use Committee (IACUC), Protocol 14114745. Two-electrode voltage clamp experiments were performed 16–40 hrs after injection using an Oocyte Clamp OC-725C amplifier (Warner Instruments), Digidata 1440A digitizer (Axon Instruments), and a 20 μl chamber (Automate Scientific). Oocytes were clamped to a holding potential of −40 to −60 mV. The recording solutions contained 130 mM NaCl, 0.1 mM CaCl2, 10 mM HEPES, pH 7.0 as well as desired concentrations of agonist and anesthetics. Data were collected and processed using Clampex 10 (Molecular Devices). Non-linear regressions were performed using Prism software (Graphpad).

[10] = tested on: α3β4 nAChR; set-up: method as in ref 8 (a number printed in a supplementary file, which may have a reference list of its own: not looked up in the article's list); settings: read-out: IC50 for nAChRs: α3β4; cited from earlier work
[11] = anesthetizing concentrations in animals; read-out: Clinical EC50; cited from earlier work
[12] = tested on: α4β2 nAChR; set-up: method as in ref 6 (a number printed in a supplementary file, which may have a reference list of its own: not looked up in the article's list); settings: read-out: IC50 for nAChRs: α4β2 (chicken); cited from earlier work
[13] = tested on: α7 nAChR; set-up: method as in ref 16 (a number printed in a supplementary file, which may have a reference list of its own: not looked up in the article's list); settings: read-out: IC50 for nAChRs: α7 (human); cited from earlier work
[14] = WT ELIC, agonist propylamine (PPA) at EC20, oocytes, mean ± SEM, n ≥ 6, read-out: IC50 for ELIC
[15] = channels pre-incubated with isoflurane, single exponential fit
[16] = channels without isoflurane pre-incubation

Q: Which “EC50 of agonist PPA compared with WT ELIC” value ([1]; A244T mutant vs wild-type ELIC) does the source give for CCCN [PPA, propylamine] here?
A: nearly identical

Q: With CCOC(=O)c1cncn1[C@H](C)c1ccccc1 [etomidate] as the compound, how does the IC50 [2] read?
A: 25.3 µM

Q: And the IC50 [3]?
A: 33 µM

Q: And the IC50 [4]?
A: 49 µM

Q: What about the IC50 [5] of the same compound?
A: 11.2 ± 1.1 µM

Q: Which results are given for FC(F)(F)C(Cl)Br (centres unmarked) [halothane]?
A: IC50 [6]: 27 µM; IC50 [5, 14]: 40 ± 4.5 µM; IC50 ([7]; read-out: IC50 for nAChRs: α2β4 (human)): 47 µM

Q: Which IC50 [1] does the source give for FC(F)OC(Cl)C(F)(F)F (centres unmarked) [isoflurane] here?
A: 61.7 ± 5.5 µM

Q: And the “Increase of isoflurane IC50 relative to the WT channel” value ([1]; A244T vs WT ELIC)?
A: ~3 fold

Q: What about the IC50 ([8]; T237A (6′) mutant, PPA at EC20, mean ± SEM, n ≥ 6, read-out: IC50 of isoflurane, T237A channel) of the same compound?
A: 525 ± 58.2 µM

Q: And the “Increase of isoflurane IC50 relative to the WT channel” value ([8]; T237A vs WT ELIC)?
A: more than an order of magnitude

Q: And the IC50 [6]?
A: 82 µM

Q: And the IC50 [5, 14]?
A: 21.9 ± 1.5 µM

Q: What about the “Imax of channel current” value [9, 15] of the same compound?
A: −0.33 ± 0.02 μA

Q: What about the “Onset rate τ of channel current” value [9, 15] of the same compound?
A: 1.73 ± 0.04 s

Q: And the “Imax of channel current” value [9, 16]?
A: −0.41 ± 0.03 μA

Q: And the “Onset rate τ of channel current” value [9, 16]?
A: 1.25 ± 0.05 s

Q: What about the IC50 [10] of the same compound?
A: 56 µM

Q: What about the IC50 ([7]; read-out: IC50 for nAChRs: α2β4) of the same compound?
A: 25 µM

Q: For CC(C)c1cccc(C(C)C)c1O [propofol], which IC50 [4] is on record?
A: 4.5 µM

Q: What about the IC50 [5, 14] of the same compound?
A: 11.9 ± 1.1 µM

Q: And the EC50 [11]?
A: 1.5 µM

Q: What about the IC50 [12] of the same compound?
A: 19 µM

Q: Which IC50 [5, 14] does the source give for FCOC(C(F)(F)F)C(F)(F)F [sevoflurane] here?
A: 23.2 ± 1.6 µM

Q: Which results are given for CCCC(C)C1(CC)C(=O)NC(=S)NC1=O (centres unmarked) [thiopental]?
A: IC50 [4]: 26 µM; IC50 [5]: 42.8 ± 1.1 µM; EC50 [11]: 25 µM; IC50 [13]: 40.6 µM
